Measured values published in ChEMBL document CHEMBL1151973, “Rhazinilam and quebrachamine derivatives from Yunnan Kopsia arborea” (J Nat Prod, 2009).

Legend:
A549 = test: Cytotoxicity against human A549 cells after 96 hrs by microplate reader assay; type: functional, cell-based; conditions: A549, 96 h
HT-29 = test: Cytotoxicity against human HT-29 cells after 96 hrs by microplate reader assay; type: functional, cell-based; conditions: HT-29, 96 h

| SMILES | IC50 (A549) [µM] | IC50 (HT-29) [µM] |
| --- | --- | --- |
| CC[C@@]12CCCN(CCc3c([nH]c4ccccc34)CC1)C2 | > 30 | 30 |
| CC[C@]12CCCn3c(COC)cc(c31)-c1ccccc1NC(=O)CC2 | 5.38 | 4.67 |
| CC[C@]12CCCn3c(CO)cc(c31)-c1ccccc1NC(=O)CC2 | 8.21 | 8.89 |
| CCOCc1cc2c3n1CCC[C@]3(CC)CCC(=O)Nc1ccccc1-2 | 7.44 | 6.39 |
| CC(=O)O[C@@]12CO[C@@H]1C[C@H](O)[C@@]1(C)C(=O)[C@H](O)C3=C(C)[C@@H](OC(=O)[C@H](O)[C@@H](NC(=O)OC(C)(C)C)c4ccccc4)C[C@@](O)([C@@H](OC(=O)c4ccccc4)[C@H]21)C3(C)C [DOCETAXEL] | 0.000495 | 0.000334 |
| CC[C@@]12CCCN(CCc3c(n(COC)c4ccccc34)CC1)C2 [KOPSIYUNNANINE D] | > 30 | 30 |
| CC[C@]12CCCn3ccc(c31)-c1ccccc1NC(=O)CC2 [RHAZINILAM] | 0.35 | 0.35 |
